In patent publication US6468987B1, “Nutritional product for a person having ulcerative colitis” (Abbott Laboratories, priority 1994, dated 2002):
Marks after values point to notes of the source that are not given here.

Columns and labels:
[1] = tested on: distal colitis induced by peptidoglycan/polysaccharide (PG/PS); experiment: PG/PS-induced acute and chronic distal colitis in rats; type: in vivo, Female Lewis rats
Procedure: For these reasons, a model of acute and chronic distal colitis in rats was developed based upon a previously published method in which purified bacterial cell wall polymers (derived from Group A streptococci) are injected intramurally into the distal colon of genetically-susceptible rats. Sartor et al., “Granulomatus Entercolitis Induced by Purified Bacterial Cell Wall Fragments”, GASTROENTEROLOGY, Vol. 89, pages 587-595 (1985). This model produces an acute and chronic inflammation characterized by the infiltration of large numbers of inflammatory cells, enhanced mucosal permeability, interstitial fibrosis, and mucosal thickening as well as the extraintestinal manifestations of arthritis, hepatic and splenic granulomas. Unlike most models of colitis, the inflammation induced in this model promoting mucosal and submucosal injury rather than the injury causing the inflammation.
In Experiment 2 the objectives were: (a) to determine whether this model of colitis responds to sulfasalazine (SAZ) and (b) to assess the effects of specially formulated enteral diets on the injury and inflammation observed in the colon, liver and spleen.
Female Lewis rats (150-175 g) were maintained in a controlled temperature and light-dark cycle (12 hours:12 hours) and housed in wire-mesh bottomed cages and given water and standard laboratory rat chow ad libitum. A total of 48 rats were divided into 6 groups of 8 rats each consisting of a sham (rats receiving Diet #1 {base diet} with no peptidoglycan/polysaccharide {PG/PS} injection) control group, a chow group and 4 groups of rats placed on 4 different polymeric diets (Table 6). Rats received either chow or polymeric diets (320 kcals/kg/day or 60 mL of liquid diet/day) for 7 days preceding induction of colitis. Distal colitis was induced by a modification of the method of Sartor et al in which multiple sites (8-9) along the distal colon were injected intramurally with 60 ul/site to deliver a dose of peptidoglycan/polysaccharide (PG/PS) of 12.5 ug/g body weight. The albumin (sham) control group received the same number of injections of human serum albumin into the distal colon.
Total dietary intake and body weights of the control and liquid diet groups were recorded for each 24 hour period during the course of the 4 week experiment (1 week prior to the induction of colitis and 3 weeks following PG/PS or albumin injection).
To assess the effects of SAZ in this model, female Lewis rats were orally administered SAZ immediately following the induction of colitis. Rats were given chow ad libitum for the duration of the four week study period. Similar measurements were assessed as described below.
All rats receiving nutritional therapy or SAZ were euthanized with an overdose of pentobarbital and the distal colon and cecum were excised and opened longitudinally. The length and weight of the perfused segment were recorded and the tissue divided longitudinally into three strips for wet-to-dry ratios, histology and myeloperoxidase (MPO) determinations. Colonic MPO activity was determined in which 3,3′ 5,5′ tetramethylbenzidine was used as the electron donating substrate and hexadecyltrimethylammonium hydroxide was used as the detergent. Spleen and liver weights were recorded. Circulating levels of nitrate and nitrite were also quantified using the Griess reagent and used as indices of immune system activation (i.e. activation of the reticuloendothelial system {nitric oxide synthase}). The studies were analyzed as a completely randomized design. Treatment differences were separated using an F-protected least significant difference (LSD) method. In both studies additional chow fed control animals that were treated under laboratory conditions described above were incorporated in the statistical analysis.

[2] = tested on: active ulcerative colitis; settings: dietary supplementation; cited from earlier work
[3] = SAZ orally from induction of colitis, chow fed PG/PS rats, least square means
[4] = oral SAZ vs PG/PS treated animals and sham control
[5] = oral SAZ vs chow fed group receiving PG/PS

Row | Compound | COLON WT [1, 3] | Liver wt [1, 3] | MPO ACTIVITY [1, 3] | Spleen wt [1, 3] | liver weight, in words [1, 4] | spleen weight, in words [1, 4] | colon weight, in words [1, 5] | increases in MPO activity, in words [1, 5] | histological inspection of the SAZ-treated tissue ([1]; oral SAZ, PG/PS colitis) | eicosanoid levels from rectal dialysate fluid [2]
1 | O=C(O)c1cc(/N=N/c2ccc(S(=O)(=O)Nc3ccccn3)cc2)ccc1O [SAZ, sulfasalazine] | .021 ± .004^a,b g dry wt/cm | 34.0 ± 3.6^b mg/g bw | 1.40 ± 2.9^b units/cm colon | 2.92 ± 1.3^b mg/g bw | significantly lower than the PG/PS treated animals and comparable to the sham control | significantly lower than the PG/PS treated animals and comparable to the sham control | tended to reduce | significantly attenuated | inhibition of leukocyte infiltration and fibrosis | –
2 | vitamin E | – | – | – | – | – | – | – | – | – | not to promote changes
